From ChEMBL document CHEMBL4261509, “Insight into the complete substrate-binding pocket of ThiT by chemical and genetic mutations” (Medchemcomm, 2017)
pKd: −log10 of the molar value.

Legend:
[1] = target: T1, Thiamine transporter ThiT (Lactococcus lactis subsp. cremoris (strain MG1363), UniProt A2RI47); assay: Binding affinity to wild-type Lactococcus lactis MG1363 N-terminal His8-tagged ThiT expressed in Lactococcus lactis NZ9000 incubated for 10 secs measured over 15 secs by fluorescence spectrophotometric method
T1 sequence (A2RI47 whole entry): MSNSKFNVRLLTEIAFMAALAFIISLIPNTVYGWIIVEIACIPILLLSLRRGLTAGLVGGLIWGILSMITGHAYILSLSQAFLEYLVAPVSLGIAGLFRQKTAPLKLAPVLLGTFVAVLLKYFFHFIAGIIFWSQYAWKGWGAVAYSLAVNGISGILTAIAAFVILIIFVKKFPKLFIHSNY

[2] = target: T1, Thiamine transporter ThiT; assay: Binding affinity to wild-type Lactococcus lactis MG1363 N-terminal His8-tagged ThiT expressed in Lactococcus lactis NZ9000 by isothermal calorimetric titration method
[3] = target: Thiamine transporter ThiT (Lactococcus lactis subsp. cremoris (strain MG1363), UniProt A2RI47, E84Q); assay: Binding affinity to Lactococcus lactis MG1363 N-terminal His8-tagged ThiT Glu84Gln mutant expressed in Lactococcus lactis NZ9000 by isothermal calorimetric titration method
Sequence of Thiamine transporter ThiT (Lactococcus lactis subsp. cremoris (strain MG1363), UniProt A2RI47, E84Q) (A2RI47 whole entry E84Q): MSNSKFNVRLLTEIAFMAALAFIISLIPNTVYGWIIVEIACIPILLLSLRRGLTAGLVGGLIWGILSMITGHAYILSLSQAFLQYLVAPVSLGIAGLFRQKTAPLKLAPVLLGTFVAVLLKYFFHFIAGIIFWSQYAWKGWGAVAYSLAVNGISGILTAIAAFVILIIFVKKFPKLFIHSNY

[4] = target: Thiamine transporter ThiT (Lactococcus lactis subsp. cremoris (strain MG1363), UniProt A2RI47, E84D); assay: Binding affinity to Lactococcus lactis MG1363 N-terminal His8-tagged ThiT Glu84Asp mutant expressed in Lactococcus lactis NZ9000 by isothermal calorimetric titration method
Sequence of Thiamine transporter ThiT (Lactococcus lactis subsp. cremoris (strain MG1363), UniProt A2RI47, E84D) (A2RI47 whole entry E84D): as the sequence (A2RI47 whole entry E84Q) above, with Q84D counted along it

[5] = target: Thiamine transporter ThiT (Lactococcus lactis subsp. cremoris (strain MG1363), UniProt A2RI47, H125A); assay: Binding affinity to Lactococcus lactis MG1363 N-terminal His8-tagged ThiT His125Ala mutant expressed in Lactococcus lactis NZ9000 by isothermal calorimetric titration method
Sequence of Thiamine transporter ThiT (Lactococcus lactis subsp. cremoris (strain MG1363), UniProt A2RI47, H125A) (A2RI47 whole entry H125A): as the sequence (A2RI47 whole entry E84Q) above, with Q84E, H125A counted along it

[6] = target: Thiamine transporter ThiT (Lactococcus lactis subsp. cremoris (strain MG1363), UniProt A2RI47, E84A); assay: Binding affinity to Lactococcus lactis MG1363 N-terminal His8-tagged ThiT Glu84Ala mutant expressed in Lactococcus lactis NZ9000 by isothermal calorimetric titration method
Sequence of Thiamine transporter ThiT (Lactococcus lactis subsp. cremoris (strain MG1363), UniProt A2RI47, E84A) (A2RI47 whole entry E84A): as the sequence (A2RI47 whole entry E84Q) above, with Q84A counted along it

[7] = target: Thiamine transporter ThiT (Lactococcus lactis subsp. cremoris (strain MG1363), UniProt A2RI47, W34A); assay: Binding affinity to Lactococcus lactis MG1363 N-terminal His8-tagged ThiT Trp34Ala mutant expressed in Lactococcus lactis NZ9000 incubated for 5 secs measured over 20 secs by fluorescence spectrophotometric method
Sequence of Thiamine transporter ThiT (Lactococcus lactis subsp. cremoris (strain MG1363), UniProt A2RI47, W34A) (A2RI47 whole entry W34A): as the sequence (A2RI47 whole entry E84Q) above, with W34A, Q84E counted along it

[8] = target: Thiamine transporter ThiT (Lactococcus lactis subsp. cremoris (strain MG1363), UniProt A2RI47, H125N); assay: Binding affinity to Lactococcus lactis MG1363 N-terminal His8-tagged ThiT His125Asn mutant expressed in Lactococcus lactis NZ9000 by isothermal calorimetric titration method
Sequence of Thiamine transporter ThiT (Lactococcus lactis subsp. cremoris (strain MG1363), UniProt A2RI47, H125N) (A2RI47 whole entry H125N): as the sequence (A2RI47 whole entry E84Q) above, with Q84E, H125N counted along it

SMILES | pKd [1] | further results
Cc1ncc(Cc2cccc(CO)c2)c(N)n1 | 6.28 | 
Cc1ncc(Cc2csc(COCc3ccccc3)c2C)c(N)n1 | 7.39 | 
Cc1cc(CO)cc(Cc2cnc(C)nc2N)c1 |  | pKd [2]: 5.70
Cc1ncc(Cc2csc(CNCc3ccccn3)c2C)c(N)n1 | 7.01 | 
Cc1ncc(C[n+]2cccc(CCO)c2C)c(N)n1 | 9.74 | 
Cc1ncc(Cn2cc(CCO)nn2)c(N)n1 |  | pKd [2]: 4.54
Cc1ncc(Cc2csc(CNCC34CC5CC(CC(C5)C3)C4)c2C)c(N)n1 |  | pKd [2]: 4.30
Cc1ncc(Cc2cccc(CCO)c2)c(N)n1 | 6.58 | 
Cc1ncc(Cc2csc(CCS[C@@H]3O[C@H](CO)[C@@H](O)[C@H](O)[C@H]3O)c2C)c(N)n1 | 6.74 | 
Cc1ncc(C[n+]2csc(CCO)c2C)c(N)n1 [THIAMINE ION] | 9.91 | pKd [3]: 4.87; pKd [4]: 8.66; pKd [5]: 7.83; pKd [6]: 5.44; pKd [7]: 9.46; pKd [8]: 7.87
Cc1ncc(Cc2csc(CCOC(=O)c3c[nH]c4ccccc34)c2C)c(N)n1 | 7.70 | 
Cc1ncc(C[n+]2csc(CCO[P@](=O)(O)OP(=O)(O)O)c2C)c(N)n1 [COCARBOXYLASE] | 8.80 | 
Cc1ncc(Cc2cc(CO)cc(C(F)(F)F)c2)c(N)n1 |  | pKd [2]: 5.64
Cc1ncc(Cc2csc(COP(=O)(O)OP(=O)(O)O)c2C)c(N)n1 | 6.68 | 
Cc1ncc(Cc2csc(CNCC(c3ccccc3)c3ccccc3)c2C)c(N)n1 | 6.77 | 
